Source: patent publication US20160052926A1, “NOVEL PYRIMIDINE AND PYRIDINE COMPOUNDS AND USAGE THEREOF” (HUTCHISON MEDIPHARMA LIMITED, priority 2013, published 2016)
pIC50: −log10 of the molar value.

Tests used:
[1] = biological target: Recombinant human FGFR1 (Homo sapiens, UniProt P11362); test: Transcreener Kinase Assay of FGFR1; type: biochemical; conditions: read-out: FGFR1 (FP) IC50
[2] = biological target: Recombinant human FGFR2 (Homo sapiens, UniProt P21802); test: Transcreener Kinase Assay of FGFR2; type: biochemical; conditions: read-out: FGFR2 (FP) IC50
Chain of Recombinant human FGFR2 (P21802 22-821): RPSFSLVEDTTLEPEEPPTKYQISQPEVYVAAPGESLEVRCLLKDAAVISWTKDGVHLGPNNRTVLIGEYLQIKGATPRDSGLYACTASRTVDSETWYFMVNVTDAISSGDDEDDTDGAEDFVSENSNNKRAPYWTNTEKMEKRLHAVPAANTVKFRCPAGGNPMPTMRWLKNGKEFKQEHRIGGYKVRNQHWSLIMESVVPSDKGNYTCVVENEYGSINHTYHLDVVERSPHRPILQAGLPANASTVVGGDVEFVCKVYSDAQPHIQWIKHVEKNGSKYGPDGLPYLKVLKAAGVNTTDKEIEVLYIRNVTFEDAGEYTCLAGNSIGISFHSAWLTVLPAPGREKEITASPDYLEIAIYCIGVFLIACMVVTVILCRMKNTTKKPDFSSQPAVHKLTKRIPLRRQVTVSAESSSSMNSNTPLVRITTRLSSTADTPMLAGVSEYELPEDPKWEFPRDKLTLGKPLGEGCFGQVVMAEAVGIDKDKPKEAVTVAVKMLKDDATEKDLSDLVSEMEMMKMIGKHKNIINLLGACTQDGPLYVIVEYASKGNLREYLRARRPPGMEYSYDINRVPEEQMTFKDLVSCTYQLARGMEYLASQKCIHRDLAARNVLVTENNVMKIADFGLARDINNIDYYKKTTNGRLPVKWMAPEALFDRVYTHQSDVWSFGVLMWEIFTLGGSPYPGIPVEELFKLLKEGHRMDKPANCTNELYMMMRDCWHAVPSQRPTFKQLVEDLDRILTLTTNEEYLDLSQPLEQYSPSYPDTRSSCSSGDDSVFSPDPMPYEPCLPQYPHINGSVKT

[3] = biological target: FGFR3 kinase (Homo sapiens, UniProt P22607); test: Z-Lyte Kinase Assay of FGFR3; type: biochemical
Chain of FGFR3 kinase (P22607 23-806): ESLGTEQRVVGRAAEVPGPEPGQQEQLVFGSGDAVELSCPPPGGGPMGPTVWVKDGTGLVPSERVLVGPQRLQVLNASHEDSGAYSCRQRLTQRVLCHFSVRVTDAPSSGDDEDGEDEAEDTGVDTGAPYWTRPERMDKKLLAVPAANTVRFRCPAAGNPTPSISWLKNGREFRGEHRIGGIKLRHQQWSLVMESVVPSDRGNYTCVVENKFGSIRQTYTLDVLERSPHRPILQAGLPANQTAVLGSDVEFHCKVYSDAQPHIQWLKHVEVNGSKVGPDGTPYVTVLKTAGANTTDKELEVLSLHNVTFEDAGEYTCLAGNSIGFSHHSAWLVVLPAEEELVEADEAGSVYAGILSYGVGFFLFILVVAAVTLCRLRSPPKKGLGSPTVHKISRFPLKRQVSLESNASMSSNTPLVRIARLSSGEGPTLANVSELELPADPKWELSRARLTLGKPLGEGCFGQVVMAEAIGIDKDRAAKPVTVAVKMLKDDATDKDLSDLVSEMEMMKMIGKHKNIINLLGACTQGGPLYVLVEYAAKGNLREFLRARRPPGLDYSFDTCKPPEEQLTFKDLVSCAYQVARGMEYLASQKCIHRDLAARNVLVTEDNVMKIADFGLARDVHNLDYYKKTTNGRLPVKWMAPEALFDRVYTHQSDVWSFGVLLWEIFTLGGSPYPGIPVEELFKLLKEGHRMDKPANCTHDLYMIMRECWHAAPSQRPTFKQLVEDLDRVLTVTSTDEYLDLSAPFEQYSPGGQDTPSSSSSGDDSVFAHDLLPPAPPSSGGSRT
Outline: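 Kinase at 0.7 μg/ml with 4 μM Z-LYTE Tyr 4 peptide and ATP diluted to 300 uM (working solution, 1.33× buffer); compounds 1–0.00046 μM, 2% DMSO final. Kinase reaction and development each 1 h at RT (25-30[…]); coumarin (445 nm) and fluorescein (520 nm) emission read, inhibition from % phosphorylation.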

[4] = system: KG-1; test: Cellular Proliferation Assay (Cell Counting Kit-8), KG-1; type: cell-based; conditions: Homo sapiens, KG1 cells, 72 hours
Outline: (§1)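 Seeding was 30,000 (KG-1), 5,000 (SNU-16) or 1,000 (RT-112) cells per well, with compound added 24 h later. Dilutions were prepared as an 8-point series of 10 to 0.004 μM in 5% DMSO, before addition to wells.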

[5] = system: SNU-16; test: Cellular Proliferation Assay (Cell Counting Kit-8), SNU-16; type: cell-based; conditions: Homo sapiens, SNU-16 cells, 72 hours
Outline: as §1

[6] = system: RT-112; test: Cellular Proliferation Assay (Cell Counting Kit-8), RT-112; type: cell-based; conditions: Homo sapiens, RT-112 cells, 72 hours
Outline: as §1

Chain of Recombinant human FGFR1 (P11362 22-822): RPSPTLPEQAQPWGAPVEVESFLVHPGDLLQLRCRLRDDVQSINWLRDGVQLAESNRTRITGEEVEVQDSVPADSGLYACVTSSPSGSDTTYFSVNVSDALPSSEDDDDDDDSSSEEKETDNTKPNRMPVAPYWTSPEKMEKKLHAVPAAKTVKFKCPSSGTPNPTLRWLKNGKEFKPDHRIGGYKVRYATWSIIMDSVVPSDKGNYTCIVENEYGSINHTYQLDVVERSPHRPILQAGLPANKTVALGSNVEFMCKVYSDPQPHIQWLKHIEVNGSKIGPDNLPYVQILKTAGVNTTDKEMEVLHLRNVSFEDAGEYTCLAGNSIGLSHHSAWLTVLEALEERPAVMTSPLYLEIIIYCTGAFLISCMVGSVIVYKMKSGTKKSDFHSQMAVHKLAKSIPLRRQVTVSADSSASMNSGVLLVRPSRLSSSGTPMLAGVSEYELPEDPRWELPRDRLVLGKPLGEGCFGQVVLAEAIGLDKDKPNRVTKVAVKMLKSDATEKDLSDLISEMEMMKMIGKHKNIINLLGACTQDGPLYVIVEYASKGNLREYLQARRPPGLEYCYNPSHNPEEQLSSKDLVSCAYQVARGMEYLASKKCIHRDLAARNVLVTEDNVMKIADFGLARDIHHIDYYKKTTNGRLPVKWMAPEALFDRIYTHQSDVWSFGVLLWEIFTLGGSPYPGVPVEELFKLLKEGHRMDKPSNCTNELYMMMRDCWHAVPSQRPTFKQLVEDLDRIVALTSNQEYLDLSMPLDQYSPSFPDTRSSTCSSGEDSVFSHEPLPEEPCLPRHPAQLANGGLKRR

Row | pIC50 [1] | pIC50 [2] | pIC50 [3] | pIC50 [5] | SMILES | pIC50 [4] | pIC50 [6]
1 | 7.74 | 8.05 | 8.15 | 7.55 | CNC(=O)c1cc(CCc2cnc(Nc3ccc(N4CCOCC4)cc3)nc2)c(F)c(OC)c1 [Compound 11] | 7.40 | 7.47
2 | 7.72 | 8.10 | 7.96 | 7.89 | CNC(=O)c1cc(CCc2cnc(Nc3cnn(CC4(C)COC4)c3)nc2)c(F)c(OC)c1 [Compound 131] | 7.43 | 6.88
3 | 7.85 | 8.15 | 8.00 | 7.47 | CNC(=O)c1cc(CCc2cnc(Nc3cnn(CCN4CCN(C)CC4)c3)nc2)c(F)c(OC)c1 [Compound 45] | 6.41 | 7.03
4 | 7.24 | 7.62 | 7.42 | 7.03 | CNC(=O)c1cc(CCc2cnc(Nc3ccc4nnc(COC)n4c3)nc2)c(F)c(OC)c1 [Compound 72] | 6.71 | 6.26
5 | 8.22 | 8.30 | 8.05 | 7.72 | CNC(=O)c1cc(CCc2cnc(Nc3cnn(C4CCN(C)CC4)c3)nc2)c(Cl)c(OC)c1 [Compound 177] | 7.60 | 7.07
6 | 7.60 | 8.30 | 8.10 | 7.66 | CNC(=O)c1cc(CCc2cnc(Nc3cnn(C4CCC4)c3)nc2)c(F)c(OC)c1 [Compound 10] | 7.74 | 7.54
7 | 7.96 | 8.22 | 7.92 | 7.66 | CNC(=O)c1cc(CCc2cnc(Nc3ccc(CN4CCOCC4)cc3)nc2)c(F)c(OC)c1 [Compound 97] | 7.59 | 6.80
8 | 6.79 | 7.28 | 6.67 | 6.77 | CNC(=O)c1cc(CCc2cnc(Nc3cnc4ccnn4c3)nc2)c(F)c(OC)c1 [Compound 94] | 6.46 | 6.54
9 | 8.05 | 8.30 | 7.89 | 7.74 | CNC(=O)c1cc(CCc2cnc(Nc3cnn([C@@H]4CCOC4)c3)nc2)c(F)c(OC)c1 [Compound 123] | 7.59 | 6.87
10 | 7.64 | 7.70 | 7.89 | 7.55 | CCN(CC)CCn1cc(Nc2ncc(OCc3cc(C(=O)NC)cc(OC)c3F)cn2)cn1 [Compound 189] | 7.42 | 7.64
11 | 7.96 | 8.30 | 8.15 | 8.05 | CNC(=O)c1cc(CCc2cnc(Nc3ccc(C(=O)N4CCN(C)CC4)cc3)nc2)c(Cl)c(OC)c1 [Compound 90] | 7.51 | 7.59
12 | 8.10 | 8.15 | 7.55 | 7.70 | CNC(=O)c1cc(CCc2cnc(Nc3cnn(C4CCN(C)CC4)c3)nc2)c(F)c(OC)c1 [Compound 173] | 7.39 | 6.87
13 | 7.54 | 7.92 | 7.72 | 7.72 | CNC(=O)c1cc(COc2cnc(Nc3ccc(N4C[C@@H](C)N[C@@H](C)C4)nc3)nc2)c(F)c(OC)c1 [Compound 201] | 5.96 | 7.18
14 | 7.82 | 8.15 | 7.80 | 7.23 | CNC(=O)c1cc(CCc2cnc(Nc3cnn(CCS(C)(=O)=O)c3)nc2)c(Cl)c(OC)c1 [Compound 153] | 6.75 | 6.62
15 | 7.55 | 8.30 | 7.89 | 7.59 | CNC(=O)c1cc(CCc2cnc(Nc3cnn(C4COC4)c3)nc2)c(F)c(OC)c1 [Compound 117] | 7.51 | 6.73
16 | 7.54 | 8.00 | 8.15 | 7.68 | CCN(CC)CCCn1cc(Nc2ncc(CCc3cc(C(=O)NC)cc(OC)c3F)cn2)cn1 [Compound 13] | 6.30 | 7.23
17 | 7.92 | 8.30 | 8.05 | 7.80 | CNC(=O)c1cc(CCc2cnc(Nc3cnn(CC4CCN(C)CC4)c3)nc2)c(Cl)c(OC)c1 [Compound 154] | 6.43 | 7.68
18 | 7.74 | 8.22 | 8.30 | 7.52 | CNC(=O)c1cc(CCc2cnc(Nc3cnn(C[C@H](C)O)c3)nc2)c(F)c(OC)c1 [Compound 32] | 7.24 | 6.98

Row | pIC50 [1] | pIC50 [2] | pIC50 [3] | pIC50 [5] | SMILES | pIC50 [4] | pIC50 [6]
19 | 7.70 | 7.96 | 7.55 | 7.55 | CNC(=O)c1cc(CCc2cnc(Nc3cnn(Cc4ccccn4)c3)nc2)c(F)c(OC)c1 [Compound 142] | 7.22 | 6.68
20 | 7.70 | 8.10 | 7.80 | 7.29 | CNC(=O)c1cc(CCc2cnc(Nc3cnn(CCCN(C)C)c3)nc2)c(F)c(OC)c1 [Compound 133] | 6.46 | 6.15
21 | 7.16 | 7.25 | 7.04 | 6.69 | CCn1cc(Nc2ncc(CCc3cc(C(=O)NC)cc(OC)c3C#N)cn2)cn1 [Compound 179, 4-cyano-3-(2-(2-((1-ethyl-1H-pyrazol-4-yl)amino)pyrimidin-5-yl)ethyl)-5-methoxy-N-methylbenzamide] | 6.55 | 6.02
22 | 8.15 | 8.22 | 8.10 | 7.22 | CNC(=O)c1cc(CCc2cnc(Nc3cnn([C@H]4CCCNC4)c3)nc2)c(F)c(OC)c1 [Compound 163] | 6.70 | 6.23
23 | 8.05 | 8.30 | 7.70 | 7.59 | CONC(=O)c1cc(CCc2cnc(Nc3ccccc3)nc2)cc(OC)c1 [Compound 22] | 7.55 | 7.08
24 | 7.82 | 7.85 | 7.82 | 7.74 | CNC(=O)c1cc(CCc2cnc(Nc3cnn([C@@H]4CCN(C)C4)c3)nc2)c(F)c(OC)c1 [Compound 169] | 7.77 | 6.27
25 | 7.92 | 8.00 | 7.85 | 7.72 | CNC(=O)c1cc(CCc2cnc(Nc3cnn(C)c3)nc2)c(Cl)c(OC)c1 [Compound 146] | 8.05 | 6.85
26 | 8.15 | 8.22 | 8.15 | 8.10 | CNC(=O)c1cc(COc2cnc(Nc3ccc(N4C[C@@H](C)N[C@@H](C)C4)c(C)c3)nc2)c(Cl)c(OC)c1 [Compound 209] | 7.89 | 7.80
27 | 6.79 | 7.40 | 6.70 | 6.62 | CNC(=O)c1cc(CCc2cnc(Nc3ccc(CN4CCOCC4)cn3)nc2)c(F)c(OC)c1 [Compound 92, 4-fluoro-3-methoxy-N-methyl-5-(2-(2-((5-(morpholinomethyl)pyridin-2-yl)amino)pyrimidin-5-yl)ethyl)benzamide] | 6.59 | 6.08
28 | 7.64 | 7.92 | 7.47 | 7.54 | CNC(=O)c1cc(CCc2cnc(Nc3cnn(CC(C)C)c3)nc2)c(F)c(OC)c1 [Compound 118] | 7.59 | 6.66
29 | 7.72 | 8.00 | 7.66 | 7.34 | CCNC(=O)c1cc(CCc2cnc(Nc3cnn(C)c3)nc2)c(Cl)c(OC)c1 [Compound 147] | 7.32 | 6.48
30 | 8.22 | 8.30 | 7.85 | 7.85 | CNC(=O)c1cc(OC)c(Cl)c(/C=C/c2cnc(Nc3ccc(N4C[C@@H](C)N[C@@H](C)C4)cc3)nc2)c1F [Compound 8] | 7.96 | 7.72
31 | 8.10 | 8.15 | 8.05 | 8.10 | CNC(=O)c1cc(COc2cnc(Nc3ccc(N4C[C@@H](C)N[C@@H](C)C4)nc3)nc2)c(Cl)c(OC)c1 [Compound 197] | 7.59 | 7.60
32 | 7.55 | 7.72 | 7.70 | 7.54 | CNC(=O)c1cc(CCc2cnc(Nc3cnn(CCN(C)C)c3)nc2)c(F)c(OC)c1 [Compound 125] | 7.52 | 6.12
33 | 7.92 | 8.15 | 7.74 | 7.26 | CNC(=O)c1cc(CCc2cnc(Nc3cn[nH]c3)nc2)c(F)c(OC)c1 [Compound 102] | 7.48 | 6.34
34 | 7.37 | 7.39 | 7.37 | 7.15 | CCN1CCN(c2ccc(Nc3ncc(CCc4cc(C(=O)NC)cc(OC)c4C)cn3)cc2)CC1 [Compound 39] | 7.31 | 6.47
35 | 7.47 | 7.92 | 7.48 | 7.48 | CNC(=O)c1cc(CCc2cnc(Nc3ccc4ncnn4c3)nc2)c(F)c(OC)c1 [Compound 95] | 7.36 | 7.14
